# Assay results from patent US20240182481A1 (Tango Therapeutics, Inc., priority 2021, published 2024).
# pIC50: −log10 of the molar value.
# Legend:
# [1] = system: MDA-MB-436 (BRCA1 mutant) cell line; experiment: Viability assay in BRCA1 mutant cell line MDA-MB-436; type: cell-based; details: Homo sapiens, MDA-MB-436, viability, BRCA1 mutant MDA-MB-436; read-out: MDA-MB-436 rel IC50
# Description: (§1) Table 1 also indicates IC50 values in a viability assay for a non-isogenic pair of BRCA1 mutant (column 5—MDA-MB-436) and BRCA1 WT (column 6—HCC1954) cell lines. These values indicate the effect of treatment with compound on cell survival.
# [2] = system: monoubiquitinated PCNA; experiment: AlphaLISA assay measuring monoubiquitinated PCNA in MDA-MB-436; type: cell-based; details: Homo sapiens, read-out: Alpha LISA IC50
# Description: Table 1 also indicates IC50 values for exemplary compounds in an AlphaLISA assay measuring monoubiquitinated PCNA in a BRCA1 mutant cell line (MDA-MB-436; column 7).
# [3] = system: HCC1954 (BRCA1 WT) cell line; experiment: Viability assay in BRCA1 WT cell line HCC1954; type: cell-based; details: for pIC50: Homo sapiens, read-out: HCC 1954 IC50 rel IC50
# Description: as §1
# [4] = molecular target: USP1-UAF1 (Homo sapiens, UniProt O94782); experiment: Ubiquitin Rhodamine assay for USP1-UAF1 activity; type: biochemical
# Description: Certain compounds of the disclosure were assessed for USP1-UAF1 activity in a Ubiquitin Rhodamine assay as described in Example 135.
# USP1-UAF1, sequence (O94782 whole entry): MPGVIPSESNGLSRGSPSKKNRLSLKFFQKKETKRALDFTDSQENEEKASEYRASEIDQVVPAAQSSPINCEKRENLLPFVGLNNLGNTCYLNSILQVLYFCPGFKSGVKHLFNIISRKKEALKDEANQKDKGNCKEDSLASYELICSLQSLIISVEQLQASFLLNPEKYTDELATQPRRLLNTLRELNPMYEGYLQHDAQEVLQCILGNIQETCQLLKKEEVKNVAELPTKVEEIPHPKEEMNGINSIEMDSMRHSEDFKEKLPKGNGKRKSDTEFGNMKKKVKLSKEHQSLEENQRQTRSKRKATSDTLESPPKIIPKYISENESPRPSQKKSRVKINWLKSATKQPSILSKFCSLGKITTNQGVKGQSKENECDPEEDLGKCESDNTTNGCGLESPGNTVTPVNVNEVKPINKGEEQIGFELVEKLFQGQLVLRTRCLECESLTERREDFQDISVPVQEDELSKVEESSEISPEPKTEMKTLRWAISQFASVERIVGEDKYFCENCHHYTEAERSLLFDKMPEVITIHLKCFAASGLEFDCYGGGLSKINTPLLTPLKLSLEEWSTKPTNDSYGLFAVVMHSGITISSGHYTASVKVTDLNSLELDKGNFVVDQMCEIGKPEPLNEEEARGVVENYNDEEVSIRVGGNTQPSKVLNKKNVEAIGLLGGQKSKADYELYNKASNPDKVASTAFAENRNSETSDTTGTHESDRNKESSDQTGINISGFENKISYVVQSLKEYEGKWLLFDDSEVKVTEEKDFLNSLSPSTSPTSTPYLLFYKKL
# USP1-UAF1, sequence (Q8TAF3 whole entry partner): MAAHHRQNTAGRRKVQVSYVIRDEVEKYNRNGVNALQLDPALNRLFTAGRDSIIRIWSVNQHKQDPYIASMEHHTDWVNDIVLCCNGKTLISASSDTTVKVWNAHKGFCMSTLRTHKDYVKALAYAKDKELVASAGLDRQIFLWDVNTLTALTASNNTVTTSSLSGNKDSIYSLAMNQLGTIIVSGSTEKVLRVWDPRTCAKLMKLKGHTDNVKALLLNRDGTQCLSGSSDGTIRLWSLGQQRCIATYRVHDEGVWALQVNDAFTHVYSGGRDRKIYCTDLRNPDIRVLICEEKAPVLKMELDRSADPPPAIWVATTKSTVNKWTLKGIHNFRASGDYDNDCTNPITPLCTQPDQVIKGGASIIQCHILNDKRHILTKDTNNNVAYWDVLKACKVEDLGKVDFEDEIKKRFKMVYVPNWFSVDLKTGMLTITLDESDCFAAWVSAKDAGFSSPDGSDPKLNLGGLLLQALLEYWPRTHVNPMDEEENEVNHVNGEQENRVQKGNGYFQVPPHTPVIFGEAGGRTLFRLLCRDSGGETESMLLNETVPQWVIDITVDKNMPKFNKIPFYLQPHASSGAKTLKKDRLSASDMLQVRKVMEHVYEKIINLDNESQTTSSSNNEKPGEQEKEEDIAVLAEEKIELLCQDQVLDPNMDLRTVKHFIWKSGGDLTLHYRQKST
SMILES,pIC50 [1],pIC50 [2],pIC50 [3],pIC50 [4],HCC 1954 IC50 rel IC50 [3]
"COc1ncnc(C(C)C)c1-c1ncc2[nH]cc(Cc3ccc(-c4nc(C(F)(F)F)cn4C)cc3)c2n1 [Compound 105, 2-(4-isopropyl-6-methoxy-pyrimidin-5-yl)-7-[[4-[1-methyl-4-(trifluoromethyl)imidazol-2-yl]phenyl]methyl]-5H-pyrrolo[3,2-d]pyrimidine]",> 7.00,> 7.00,≤ 5.00,> 7.52,–
"Cn1cc(C(F)(F)F)nc1-c1ccc(Cc2c[nH]c3cnc(-c4c(Cl)ccnc4C4CC4)nc23)cc1 [Compound 150, 2-(4-chloro-2-cyclopropylpyridin-3-yl)-7-(4-(1-methyl-4-(trifluoromethyl)-1H-imidazol-2-yl)benzyl)-5H-pyrrolo[3,2-d]pyrimidine]",> 7.00,> 7.00,5.00 to 6.60,> 7.52,–
"COc1ncnc(C2CC2)c1-c1ncc2[nH]cc(Cc3ccc(-c4nc(C(F)(F)F)cn4C4CN(C)C4)cc3)c2n1 [Compound 18, 2-(4-cyclopropyl-6-methoxypyrimidin-5-yl)-7-(4-(1-(1-methylazetidin-3-yl)-4-(trifluoromethyl)-1H-imidazol-2-yl)benzyl)-5H-pyrrolo[3,2-d]pyrimidine]",6.60 to 7.00,6.60 to 7.00,≤ 5.00,5.00 to 7.00,–
"COc1ncnc(C2CC2)c1-c1ncc2[nH]cc(Cc3ccc(-c4nc(C(F)(F)F)cn4C)cc3)c2n1 [Compound 65, 2-(4-cyclopropyl-6-methoxy-pyrimidin-5-yl)-7-[[4-[1-methyl-4-(trifluoromethyl)imidazol-2-yl]phenyl]methyl]-5H-pyrrolo[3,2-d]pyrimidine]",> 7.00,> 7.00,≤ 5.00,> 7.52,–
COc1ncnc(C2CC2)c1-c1ncc2[nH]nc(Cc3ccc(-c4nc(C(F)(F)F)cn4C)cc3C)c2n1 [Compound 196],> 7.00,> 7.00,≤ 5.00,> 7.52,–
"COCCn1cc(Cc2ccc(-c3nc(C(F)(F)F)cn3C)cc2)c2nc(-c3c(OC)ncnc3C3CC3)ncc21 [Compound 200, 2-(4-cyclopropyl-6-methoxy-pyrimidin-5-yl)-5-(2-methoxyethyl)-7-[[4-[1-methyl-4-(trifluoromethyl)imidazol-2-yl]phenyl]methyl]pyrrolo[3,2-d]pyrimidine]",> 7.00,> 7.00,≤ 5.00,7.00 to 7.52,–
"CCOc1ncnc(C2CC2)c1-c1ncc2[nH]cc(Cc3ccc(-c4nc(C(F)(F)F)cn4C)cc3)c2n1 [Compound 111, 2-(4-cyclopropyl-6-ethoxy-pyrimidin-5-yl)-7-[[4-[1-methyl-4-(trifluoromethyl)imidazol-2-yl]phenyl]methyl]-5H-pyrrolo[3,2-d]pyrimidine]",> 7.00,> 7.00,≤ 5.00,7.00 to 7.52,–
"COc1nccc(C2CC2)c1-c1ncc2[nH]nc(Cc3ccc(-c4nc(C(F)(F)F)cn4C)cc3)c2n1 [Compound 205, 5-(4-cyclopropyl-2-methoxy-3-pyridyl)-3-[[4-[1-methyl-4-(trifluoromethyl)imidazol-2-yl]phenyl]methyl]-1H-pyrazolo[4,3-d]pyrimidine]",> 7.00,> 7.00,≤ 5.00,> 7.52,–
"CN(C)c1ncccc1-c1ncc2[nH]cc(Cc3ccc(-c4nc(C(F)(F)F)cn4C)cc3)c2n1 [Compound 29, N,N-dimethyl-3-[7-[[4-[1-methyl-4-(trifluoromethyl)imidazol-2-yl]phenyl]methyl]-5H-pyrrolo[3,2-d]pyrimidin-2-yl]pyridin-2-amine]",5.00 to 6.60,5.00 to 6.60,≤ 5.00,5.00 to 7.00,–
CC(C)c1ccccc1-c1cc2c(CN3CCN(c4nc(C(F)(F)F)cn4C)CC3)c[nH]c2cn1 [Compound 71],5.00 to 6.60,5.00 to 6.60,5.00 to 6.60,5.00 to 7.00,–
"CCOc1cc(C(F)(F)F)nn1-c1ccc(Cc2n[nH]c3cnc(-c4c(OC)ncnc4C4CC4)nc23)cc1 [Compound 123, 5-(4-cyclopropyl-6-methoxy-pyrimidin-5-yl)-3-[[4-[5-ethoxy-3-(trifluoromethyl)pyrazol-1-yl]phenyl]methyl]-1H-pyrazolo[4,3-d]pyrimidine]",> 7.00,> 7.00,5.00 to 6.60,> 7.52,–
"COc1ncnc(C2CC2)c1-c1ncc2[nH]nc(Cc3ccc(-c4nc(C(F)(F)F)cn4C)cc3F)c2n1 [Compound 189, 5-(4-cyclopropyl-6-methoxy-pyrimidin-5-yl)-3-[[2-fluoro-4-[1-methyl-4-(trifluoromethyl)imidazol-2-yl]phenyl]methyl]-1H-pyrazolo[4,3-d]pyrimidine]",> 7.00,> 7.00,≤ 5.00,7.00 to 7.52,–
"CC(C)c1ccccc1-c1cc2c(Oc3ccc(-c4nc(C(F)(F)F)cn4C)cc3)c[nH]c2cn1 [Compound 14, 5-(2-isopropylphenyl)-3-[4-[1-methyl-4-(trifluoromethyl)imidazol-2-yl]phenoxy]-1H-pyrrolo[2,3-c]pyridine]",> 7.00,> 7.00,≤ 5.00,> 7.52,–
COc1ncnc(OC)c1-c1ncc2[nH]cc(Cc3ccc(-c4nc(C(F)(F)F)cn4C(C)C)cc3)c2n1 [Compound 182],6.60 to 7.00,> 7.00,≤ 5.00,7.00 to 7.52,–
"COc1ncnc(C2CC2)c1-c1ncc2[nH]cc(Cc3ccc(-c4nc(C(F)(F)F)cn4C4CC4)cc3)c2n1 [Compound 81, 2-(4-cyclopropyl-6-methoxy-pyrimidin-5-yl)-7-[[4-[1-cyclopropyl-4-(trifluoromethyl)imidazol-2-yl]phenyl]methyl]-5H-pyrrolo[3,2-d]pyrimidine]",> 7.00,> 7.00,5.00 to 6.60,> 7.52,–
"COc1ncnc(C2CC2)c1-c1nc(C)c2[nH]nc(Cc3ccc(-c4nc(C(F)(F)F)cn4C)cc3)c2n1 [Compound 115, 5-(4-cyclopropyl-6-methoxypyrimidin-5-yl)-7-methyl-3-(4-(1-methyl-4-(trifluoromethyl)-1H-imidazol-2-yl)benzyl)-1H-pyrazolo[4,3-d]pyrimidine]",> 7.00,> 7.00,≤ 5.00,> 7.52,–
"Cn1cc(C(F)(F)F)nc1-c1ccc(C(O)c2c[nH]c3cnc(-c4c(OC(F)F)ncnc4C4CC4)nc23)cc1 (centres unmarked) [Compound 168, [2-[4-cyclopropyl-6-(difluoromethoxy)pyrimidin-5-yl]-5H-pyrrolo[3,2-d]pyrimidin-7-yl]-[4-[1-methyl-4-(trifluoromethyl)imidazol-2-yl]phenyl]methanol]",> 7.00,> 7.00,5.00 to 6.60,7.00 to 7.52,–
COc1ccnc(C2CC2)c1-c1ncc2[nH]nc(Cc3ccc(-c4nc(C(F)(F)F)cn4C)cc3)c2n1 [Compound 116],> 7.00,6.60 to 7.00,≤ 5.00,> 7.52,–
COc1ncnc(C2CC2)c1-c1ncc2[nH]c(C)c(Cc3ccc(-c4nc(C(F)(F)F)cn4C)cc3)c2n1 [Compound 188],> 7.00,> 7.00,≤ 5.00,> 7.52,–
Cn1cc(C(F)(F)F)nc1-c1ccc(Cc2c(CN)[nH]c3cnc(-c4cccnc4C4CC4)nc23)cc1 [Compound 186],6.60 to 7.00,6.60 to 7.00,5.00 to 6.60,7.00 to 7.52,–
"CC(C)c1ccccc1-c1ncc2[nH]cc(Oc3ccc(-c4nc(C(F)(F)F)cn4C)cc3)c2n1 [Compound 2, 2-(2-isopropylphenyl)-7-[4-[1-methyl-4-(trifluoromethyl)imidazol-2-yl]phenoxy]-5H-pyrrolo[3,2-d]pyrimidine]",6.60 to 7.00,> 7.00,≤ 5.00,7.00 to 7.52,–
CC(C)n1cc(C(F)(F)F)nc1-c1ccc(C(O)c2c[nH]c3cnc(-c4c(OC(F)F)ncnc4C4CC4)nc23)cc1 (centres unmarked) [Compound 92],> 7.00,> 7.00,–,7.00 to 7.52,dd
COc1ncnc(C2CC2)c1-c1ncc2[nH]cc(Cc3ccc(-c4nc(C(F)(F)F)cn4C)c(C)c3)c2n1 [Compound 113],> 7.00,> 7.00,≤ 5.00,> 7.52,–
"COCc1[nH]c2cnc(-c3c(OC)ncnc3C3CC3)nc2c1Cc1ccc(-c2nc(C(F)(F)F)cn2C)cc1 [Compound 94, 2-(4-cyclopropyl-6-methoxy-pyrimidin-5-yl)-6-(methoxymethyl)-7-[[4-[1-methyl-4-(trifluoromethyl)imidazol-2-yl]phenyl]methyl]-5H-pyrrolo[3,2-d]pyrimidine]",> 7.00,> 7.00,≤ 5.00,> 7.52,–
"COc1nc(C)nc(C2CC2)c1-c1ncc2[nH]cc(Cc3ccc(-c4nc(C(F)(F)F)cn4C)cc3)c2n1 [Compound 142, 2-(4-cyclopropyl-6-methoxy-2-methylpyrimidin-5-yl)-7-(4-(1-methyl-4-(trifluoromethyl)-1H-imidazol-2-yl)benzyl)-5H-pyrrolo[3,2-d]pyrimidine]",> 7.00,> 7.00,≤ 5.00,7.00 to 7.52,–
"CC(C)c1ccccc1-c1ncc2[nH]cc(Cc3ccc(-c4nc(C(F)(F)F)cn4C)cc3)c2n1 [Compound 10, 2-(2-isopropylphenyl)-7-[[4-[1-methyl-4-(trifluoromethyl)imidazol-2-yl]phenyl]methyl]-5H-pyrrolo[3,2-d]pyrimidine]",> 7.00,> 7.00,≤ 5.00,> 7.52,–
